Source: patent US4130709A, “Pleuromutilin glycoside derivatives” (Eli Lilly and Company, priority 1977, dated 1978)
≈ marks a conversion by molar mass, not a printed value. Read-outs that look alike come from different tables or passages of the source.

Legend:
[1] = tested on: Staphylococcus aureus (H-Heatley) NRRL B-314; experiment: in vitro turbidometric assay (Autoturb Microbiological Assay System) against Staphylococcus aureus; format: cell-based; settings: nutrient broth pH 7, approximately 4 hours at 37° C., A-40104 factor A as standard
Procedure: The compounds are conveniently tested against a typical gram-positive organism, Staphylococcus aureus, using a turbidometric assay on a semi-automated system (Autoturb Microbiological Assay System, Elanco) described by N. R. Kuzel and F. W. Kavanagh in J. Pharmaceut. Sci, 60 (5), 764 and 767 (1971). In testing these compounds, the following parameters were used: Staphylococcus aureus (H-Heatley) NRRL B-314 in a nutrient broth medium (pH 7), incubated for approximately 4 hours at 37° C. Test samples and A-40104 factor A, which is used as a standard, were dissolved in water. The standard was presented to the Autoturb carrousel at concentrations of 1.25, 2.50, 3.75, 5.00 and 6.25 mcg/ml. Test compounds were diluted to contain approximately 2.5 to 5.0 mcg of activity per ml, as presented to the carrousel. The units of activity of some of the typical compounds of this invention (R^2 =H in group tested) in this in vitro assay are summarized in Table I

Actinomyces israelii = experiment: standard agar-dilution test, anaerobic bacteria; format: cell-based; settings: 24-hour incubation
Clostridium perfringens = experiment: microbe, parasite or virus in culture; format: cell-based; settings: 24 h
[2] = tested on: Bacteroides thetaiotaomicron; experiment: standard agar-dilution test, anaerobic bacteria; format: cell-based; settings: 24-hour incubation
Procedure: (§1) Table IV summarizes the activity of typical compounds of this invention, as determined by the standard agar-dilution test.
(§2) *Endpoint read after 24-hour incubation

Clostridium septicum = experiment: standard agar-dilution test, anaerobic bacteria; format: cell-based; settings: 24-hour incubation
Procedure: as §1, §2

Eubacterium aerofaciens = experiment: standard agar-dilution test, anaerobic bacteria; format: cell-based; settings: Collinsella aerofaciens
[3] = tested on: Peptococcus asaccharolyticus; experiment: standard agar-dilution test, anaerobic bacteria; format: cell-based; settings: Peptoniphilus asaccharolyticus, 24-hour incubation
Peptococcus prevoti = experiment: standard agar-dilution test, anaerobic bacteria; format: cell-based
[4] = tested on: Peptostreptococcus anaerobius; experiment: standard agar-dilution test, anaerobic bacteria; format: cell-based; settings: 24-hour incubation
[5] = tested on: Peptostreptococcus intermedius; experiment: standard agar-dilution test, anaerobic bacteria; format: cell-based
Bacteroides fragilis 111 = experiment: standard agar-dilution test, anaerobic bacteria; format: cell-based
[6] = tested on: Bacteroides fragilis 1877; experiment: standard agar-dilution test, anaerobic bacteria; format: cell-based
[7] = tested on: Bacteroides fragilis 1936B; experiment: standard agar-dilution test, anaerobic bacteria; format: cell-based
[8] = tested on: Bacteroides melaninogenicus 1856/28; experiment: standard agar-dilution test, anaerobic bacteria; format: cell-based; settings: Prevotella intermedia
[9] = tested on: Bacteroides melaninogenicus 2736; experiment: standard agar-dilution test, anaerobic bacteria; format: cell-based
Bacteroides vulgatis = experiment: standard agar-dilution test, anaerobic bacteria; format: cell-based
Bacteroides corrodens = experiment: standard agar-dilution test, anaerobic bacteria; format: cell-based; settings: Eikenella corrodens
Fusobacterium symbiosum = experiment: standard agar-dilution test, anaerobic bacteria; format: cell-based
[10] = tested on: Fusobacterium necrophorum; experiment: standard agar-dilution test, anaerobic bacteria; format: cell-based
[11] = tested on: Pasteurella multocida (bovine); experiment: in vitro activity against Pasteurella multocida (bovine); format: cell-based
Excerpt: (§3) The activity of representative compounds of this invention (R^2 =H in group tested) against P. multocida and the Pseudomonas sp. is summarized in Table VI.

[12] = tested on: Pasteurella multocida (turkey); experiment: in vitro activity against Pasteurella multocida (turkey); format: cell-based
Excerpt: as §3

Pseudomonas sp. (fish) = experiment: in vitro activity against Pseudomonas sp. (fish); format: cell-based
Excerpt: P. multocida, for example, is a causative agent of respiratory infection in cattle, poultry and swine. P. hemolytica is a major cause of respiratory disease in cattle. The activity of representative compounds of this invention (R^2 =H in group tested) against P. multocida and the Pseudomonas sp. is summarized in Table VI.

Spiroplasma citri = experiment: in vitro inhibition of Spiroplasma citri measured by a color reaction; format: cell-based; parameters: key to Activity (color reaction): Red (R) includes complete inhibition; red-orange (RO) indicates partial inhibition; yellow (Y) indicates no inhibition
Procedure: In another important aspect, the compounds of this invention are active against Spiroplasmas. Spiroplasma citri is the causative agent of citrus-stubborn disease; another Spiroplasma, corn-stunt Spiroplasma, affects the growth of corn. Table VII summarizes the in vitro activity of representative compounds of the present invention (R^2 =H in this group) against Spiroplasma citri. In this test, inhibition of S. citri is measured by a color reaction. Red (R) includes complete inhibition; red-orange (RO) indicates partial inhibition; and yellow (Y) indicates no inhibition.

Mycoplasma gallisepticum = experiment: in vitro broth-dilution studies, mycoplasma; format: cell-based; settings: Mycoplasmoides gallisepticum
Excerpt: (§4) The minimal inhibitory concentrations (MIC's) of a number of typical compounds of the present invention (R^2 =H in group tested) against various mycoplasma species, as determined by in vitro broth-dilution studies, are summarized in Table V.

Mycoplasma hyopneumoniae = experiment: in vitro broth-dilution studies, mycoplasma; format: cell-based; settings: Mesomycoplasma hyopneumoniae
Excerpt: as §4

Mycoplasma hyorhinis = experiment: in vitro broth-dilution studies, mycoplasma; format: cell-based
Excerpt: as §4

Mycoplasma synoviae = experiment: in vitro broth-dilution studies, mycoplasma; format: cell-based; settings: Mycoplasmopsis synoviae
Excerpt: as §4

[13] = toxicity (LD50) on intraperitoneal injection in mice; settings: mouse, in vivo, ip; intraperitoneal injection, mice
[14] = Eubacterium aerofaciens, 24-hour incubation, read-out: MIC
[15] = Peptococcus prevoti, 24-hour incubation, read-out: MIC
[16] = Peptostreptococcus intermedius, 24-hour incubation, read-out: MIC
[17] = Bacteroides fragilis 111, 24-hour incubation, read-out: MIC
[18] = Bacteroides fragilis 1877, 24-hour incubation, read-out: MIC
[19] = Bacteroides fragilis 1936B, 24-hour incubation, read-out: MIC
[20] = Bacteroides melaninogenicus 1856/28, 24-hour incubation, read-out: MIC
[21] = Bacteroides melaninogenicus 2736, 24-hour incubation, read-out: MIC
[22] = Bacteroides vulgatis, 24-hour incubation, read-out: MIC
[23] = Bacteroides corrodens, 24-hour incubation, read-out: MIC
[24] = Fusobacterium symbiosum, 24-hour incubation, read-out: MIC
[25] = 24-hour incubation, read-out: MIC
[26] = Bacteroides fragilis, 111, 24 h
[27] = Bacteroides fragilis, 1877, 24 h
[28] = Bacteroides fragilis, 1936B, 24 h

Compound | Units of Activity [1] | MIC (Actinomyces israelii) | MIC (Clostridium perfringens) | MIC [2] | MIC (Clostridium septicum) | MIC (Eubacterium aerofaciens; [14]) | MIC [3] | MIC (Peptococcus prevoti; [15]) | MIC [4] | MIC [5, 16] | MIC (Bacteroides fragilis 111; [17]) | MIC [6, 18] | MIC [7, 19] | MIC [8, 20] | MIC [10, 25] | Activity (color reaction) (Spiroplasma citri; 0.1 ppm) | Activity (color reaction) (Spiroplasma citri; 1.0 ppm) | MIC (Mycoplasma gallisepticum) | MIC (Mycoplasma hyorhinis) | MIC (Mycoplasma synoviae) | also measured
C=C[C@]1(C)C[C@@H](OC(=O)CS[C@@H]2OC[C@@H](OC(C)=O)[C@H](OC(C)=O)[C@H]2OC(C)=O)[C@]2(C)[C@H](C)CC[C@]3(CCC(=O)[C@H]32)[C@@H](C)[C@@H]1O [Compound 1, 14-deoxy-14-[(2,3,4-tri-O-acetyl-β-D-xylopyranosyl)thioacetoxy]mutilin] | 568 to 579 µg/mg | ≤ 0.5 mg/L | 16 mg/L (≈ 24.5 µM) | 8 mg/L (≈ 12.3 µM) | ≤ 0.5 mg/L | 16 mg/L (≈ 24.5 µM) | ≤ 0.5 mg/L | ≤ 0.5 mg/L | ≤ 0.5 mg/L | ≤ 0.5 mg/L | 8 mg/L (≈ 12.3 µM) | 4 mg/L (≈ 6.13 µM) | 8 mg/L (≈ 12.3 µM) | > 128 mg/L | ≤ 0.5 mg/L | R,R | R,R | – | – | – | MIC [9, 21]: 2 mg/L (≈ 3.06 µM); MIC (Bacteroides vulgatis; [22]): 4 mg/L (≈ 6.13 µM); MIC (Bacteroides corrodens; [23]): 4 mg/L (≈ 6.13 µM); MIC (Fusobacterium symbiosum; [24]): 4 mg/L (≈ 6.13 µM); MIC [11]: < 50 mg/L; MIC [12]: 50 mg/L (≈ 76.6 µM); MIC (Pseudomonas sp. (fish)): 12.5 mg/L (≈ 19.1 µM); Activity (color reaction) (Spiroplasma citri; 0.01 ppm): Y,RO; Activity (color reaction) (Spiroplasma citri; 0.05 ppm): --,R
CC[C@]1(C)C[C@@H](OC(=O)CS[C@@H]2OC[C@@H](OC(C)=O)[C@H](OC(C)=O)[C@H]2OC(C)=O)[C@]2(C)[C@H](C)CC[C@]3(CCC(=O)[C@H]32)[C@@H](C)[C@@H]1O [Compound 6, 14-deoxy-14-[(2,3,4-tri-O-acetyl-β-D-xylopyranosyl)thioacetoxy]-19,20-dihydromutilin] | 746 to 883 µg/mg | 2 mg/L (≈ 3.05 µM) | > 128 mg/L | 8 mg/L (≈ 12.2 µM) | 1 mg/L (≈ 1.53 µM) | 16 mg/L (≈ 24.4 µM) | 4 mg/L (≈ 6.11 µM) | 2 mg/L (≈ 3.05 µM) | ≤ 0.5 mg/L | 4 mg/L (≈ 6.11 µM) | 2 mg/L (≈ 3.05 µM) | 2 mg/L (≈ 3.05 µM) | 8 mg/L (≈ 12.2 µM) | 2 mg/L (≈ 3.05 µM) | 4 mg/L (≈ 6.11 µM) | R | R | 0.78 mg/L (≈ 1.19 µM) | 0.39 mg/L (≈ 0.596 µM) | 0.78 mg/L (≈ 1.19 µM) | MIC [9, 21]: 4 mg/L (≈ 6.11 µM); MIC (Bacteroides vulgatis; [22]): 4 mg/L (≈ 6.11 µM); MIC (Bacteroides corrodens; [23]): 4 mg/L (≈ 6.11 µM); MIC (Fusobacterium symbiosum; [24]): 4 mg/L (≈ 6.11 µM); MIC (Mycoplasma hyopneumoniae): ≤ 0.15 mg/L; MIC [11]: < 50 mg/L; MIC [12]: < 50 mg/L; MIC (Pseudomonas sp. (fish)): 12.5 mg/L (≈ 19.1 µM); Activity (color reaction) (Spiroplasma citri; 0.01 ppm): RO; Activity (color reaction) (Spiroplasma citri; 0.05 ppm): R
CC[C@]1(C)C[C@@H](OC(=O)CO[C@H]2O[C@H](COC(C)=O)[C@@H](OC(C)=O)[C@H](OC(C)=O)C2=NO)[C@]2(C)[C@H](C)CC[C@]3(CCC(=O)[C@H]32)[C@@H](C)[C@@H]1O [Compound 8, 14-deoxy-14-[(2-deoxy-2-(hydroxyimino)-3,4,6-tri-O-acetyl-α-D-glucopyranosyl)oxyacetoxy]-19,20-dihydromutilin] | – | 8 mg/L (≈ 11.7 µM) | > 128 mg/L | > 128 mg/L | > 128 mg/L | – | 8 mg/L (≈ 11.7 µM) | – | 64 mg/L (≈ 93.9 µM) | – | – | – | – | – | – | Y | R | 3.12 mg/L (≈ 4.58 µM) | 6.25 mg/L (≈ 9.17 µM) | 6.25 mg/L (≈ 9.17 µM) | LD50 [13]: > 300 mg/kg; MIC (Eubacterium aerofaciens; 24 h): > 128 mg/L; MIC (Peptococcus prevoti; 24 h): > 128 mg/L; MIC ([5]; Peptostreptococcus, 24 h): > 128 mg/L; MIC (Bacteroides fragilis 111; [26]): > 128 mg/L; MIC [6, 27]: > 128 mg/L; MIC [7, 28]: > 128 mg/L; MIC ([8]; 1856/28, 24 h): > 128 mg/L; MIC ([9]; 2736, 24 h): > 128 mg/L; MIC (Bacteroides vulgatis; Bacteroides, 24 h): > 128 mg/L; MIC (Bacteroides corrodens; 24 h): > 128 mg/L; MIC (Fusobacterium symbiosum; Fusobacterium, 24 h): > 128 mg/L; MIC ([10]; 24 h): > 128 mg/L
C=C[C@]1(C)C[C@@H](OC(=O)CO[C@H]2O[C@H](COC(C)=O)[C@H](OC(C)=O)[C@H](OC(C)=O)C2=NO)[C@]2(C)[C@H](C)CC[C@]3(CCC(=O)[C@H]32)[C@@H](C)[C@@H]1O [Compound 9, 14-deoxy-14-[(2-deoxy-2-(hydroxyimino)-3,4,6-tri-O-acetyl-α-D-galactopyranosyl)oxyacetoxy]mutilin] | 53 to 54 µg/mg | 1 mg/L (≈ 1.47 µM) | > 128 mg/L | > 128 mg/L | > 128 mg/L | – | 16 mg/L (≈ 23.5 µM) | 16 mg/L (≈ 23.5 µM) | 2 mg/L (≈ 2.94 µM) | – | – | – | – | – | 64 mg/L (≈ 94.2 µM) | – | – | < 0.78 mg/L | 1.56 mg/L (≈ 2.29 µM) | < 0.78 mg/L | MIC (Eubacterium aerofaciens; 24 h): > 128 mg/L; MIC ([5]; Peptostreptococcus, 24 h): > 128 mg/L; MIC (Bacteroides fragilis 111; [26]): > 128 mg/L; MIC [6, 27]: > 128 mg/L; MIC [7, 28]: > 128 mg/L; MIC ([8]; 1856/28, 24 h): > 128 mg/L; MIC ([9]; 2736, 24 h): > 128 mg/L; MIC (Bacteroides vulgatis; Bacteroides, 24 h): > 128 mg/L; MIC (Bacteroides corrodens; 24 h): > 128 mg/L; MIC (Fusobacterium symbiosum; Fusobacterium, 24 h): > 128 mg/L; MIC (Mycoplasma hyopneumoniae): 0.78 mg/L (≈ 1.15 µM)
